According to publication PMC10807440, “Engineering Novosphingobium aromaticivorans to produce cis,cis-muconic acid from biomass aromatics” (Applied and Environmental Microbiology, 2023):

Legend:
NaCatA = target: T1, NaCatA (Novosphingobium aromaticivorans, UniProt A4XFH8); experiment: ccMA formation by absorbance at […] nm; type: biochemical; conditions: 100 µM catechol, 0.5 µM enzyme, 50 mM HEPES, 150 mM NaCl pH 7.5, 28°C; O2 co-substrate
T1 construct: gene Saro_3830; pVP302K (8x His tag), expressed in E. coli B834 pRARE2 with Fe(II)SO4, Ni-NTA purified
T1 sequence (A4XFH8 1-298): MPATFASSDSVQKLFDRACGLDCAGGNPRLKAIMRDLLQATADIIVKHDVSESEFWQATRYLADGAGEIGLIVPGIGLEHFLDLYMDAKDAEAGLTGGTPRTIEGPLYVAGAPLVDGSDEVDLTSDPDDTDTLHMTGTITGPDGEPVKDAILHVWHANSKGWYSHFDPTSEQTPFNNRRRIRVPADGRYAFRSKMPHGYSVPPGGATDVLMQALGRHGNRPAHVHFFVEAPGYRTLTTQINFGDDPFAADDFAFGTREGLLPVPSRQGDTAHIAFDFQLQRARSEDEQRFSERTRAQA

NadCD = target: T2, NadCD (Novosphingobium aromaticivorans, UniProt A4XDW1); experiment: PCA to catechol conversion by LCMS; type: biochemical; conditions: 1 mM PCA, 0.1 µM enzyme, crude prFMN-containing E. coli lysate needed, 50 mM HEPES, 150 mM NaCl pH 7.5, room temperature (18 h endpoint assay)
T2 construct: gene Saro_3877; Saro_3877-78 cloned together in pVP302K (8x His tag), expressed in E. coli B834 pRARE2, Ni-NTA purified; with protocatechuate decarboxylase subunit D (4-hydroxybenzoate decarboxylase subunit D-like)
T2 sequence (A4XDW1 1-486): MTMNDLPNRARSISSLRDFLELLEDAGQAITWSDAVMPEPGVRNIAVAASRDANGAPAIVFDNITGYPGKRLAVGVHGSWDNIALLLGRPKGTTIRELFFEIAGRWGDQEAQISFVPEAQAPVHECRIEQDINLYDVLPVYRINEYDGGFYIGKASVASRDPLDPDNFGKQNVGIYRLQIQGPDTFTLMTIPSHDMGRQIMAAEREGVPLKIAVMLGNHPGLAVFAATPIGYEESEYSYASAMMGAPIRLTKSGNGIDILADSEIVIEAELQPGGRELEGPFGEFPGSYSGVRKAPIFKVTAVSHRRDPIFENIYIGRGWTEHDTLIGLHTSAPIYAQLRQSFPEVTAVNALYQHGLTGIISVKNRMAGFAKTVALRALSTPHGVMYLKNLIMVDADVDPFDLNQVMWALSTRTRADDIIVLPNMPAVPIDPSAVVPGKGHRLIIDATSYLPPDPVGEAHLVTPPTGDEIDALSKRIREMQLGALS
T2 sequence (A4XDW2 1-74 partner): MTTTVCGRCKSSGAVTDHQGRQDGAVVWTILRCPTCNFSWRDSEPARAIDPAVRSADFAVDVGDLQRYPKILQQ

Structure (SMILES)	ccMA formation by absorbance at 260 nm (NaCatA)	PCA to catechol conversion by LCMS (NadCD)
Oc1ccccc1O [catechol]	NaCatA catalyzes the intradiol cleavage of catechol to produce ccMA in vitro	–
O=C(O)c1ccc(O)c(O)c1 [PCA]	–	NadCD was mixed with PCA and with the crude E. coli lysate that contained prFMN
